Our source for the S/N values is paper PMC10977697 (PLOS ONE, 2024).

Where no end group is shown, it is not given here.

In this assay the test system is ApoL1. The experiment in a line: Spot phage ELISA, ApoL1. It is filed as binding, human. Particulars: ratio of signal for target protein over BSA background. For orientation: An ELISA detects its analyte on a solid surface through an enzyme-linked reagent.
Consider “GCHYRRNRWEQACKQDSDCLAGCVCQGMPKCG (also: bicyclic or more (positions not given here)) [ApoL1 EET I-II 18]”, for which the S/N amounted to 38.3.
As for “GCKFAKARCKQDSDCLAGCVCSPVRKCG (also: bicyclic or more (positions not given here)) [ApoL1 EET I-II 10]”, the S/N turned out to be 42.7.
Under “GCKFHLWFCKQDSDCLAGCVCDPNGFCS (also: bicyclic or more (positions not given here)) [ApoL1 EET I-II 33]” stands 15.3.
For the sequence “GCKFKAHSCKQDSDCLAGCVCSGQDPGCG (also: bicyclic or more (positions not given here)) [ApoL1 EET I-II 30]”, the S/N stood at 18.9.
For “GCKFKCKQDSDCLAGCVCGHYDHCG (also: bicyclic or more (positions not given here)) [ApoL1 EET I-II 28]”, the S/N is recorded as 23.6.
On to “GCKFKEWFCKQDSDCLAGCVCEHSQSCG (also: bicyclic or more (positions not given here)) [ApoL1 EET I-II 20]”, for which the S/N is given as 36.0.
Take “GCKFKHFLCKQDSDCLAGCVCDDLQNCG (also: bicyclic or more (positions not given here)) [ApoL1 EET I-II 9]”: the S/N came to 43.0.
Under “GCKFKHWYCKQDSDCLAGCVCCPPNHYG [ApoL1 EET I-II 11]” stands 41.1; under “GCKFKRHMCKQDSDCLAGCVCTVKQNCG (also: bicyclic or more (positions not given here)) [ApoL1 EET I-II 41]”, 8.3; under “GCKFKRWTCKQDSDCLAGCVCEQPGMCG (also: bicyclic or more (positions not given here)) [ApoL1 EET I-II 19]”, 37.0.
The figure for “GCKFKSFTCKQDSDCLAGCVCWDQDTCG (also: bicyclic or more (positions not given here)) [ApoL1 EET I-II 7]” is 44.3; for “GCKFKWHFCKQDSDCLAGCVCQPHETCG (also: bicyclic or more (positions not given here)) [ApoL1 EET I-II 36]” it is 12.4.
For the sequence “GCKFMNWKCKQDSDCLAGCVCTENEPCG (also: bicyclic or more (positions not given here)) [ApoL1 EET I-II 2]”, the S/N worked out at 53.2.
The figure for “GCKFRLWFCKQDSYCLPGCVCGPNGFCG (also: bicyclic or more (positions not given here)) [ApoL1 EET I-II 42]” is 7.2; for “GCKFRLWHCKQDSDCLAGCVCTAQPDCG (also: bicyclic or more (positions not given here)) [ApoL1 EET I-II 47]” it is 3.6; for “GCKFRNWLCKQDSDCLAGCVCPWDTHCG (also: bicyclic or more (positions not given here)) [ApoL1 EET I-II 43]” it is 6.6.
The figure for “GCKFRRWKCKQDSDCLAGCVCDPQGPCG (also: bicyclic or more (positions not given here)) [ApoL1 EET I-II 39]” is 9.9; for “GCKFWFWRLCKQDSDCLAGCVCAGSPPCG (also: bicyclic or more (positions not given here)) [ApoL1 EET I-II 35]” it is 14.1; for “GCKFWLHRYKQDSDCLAGCVCGPNVFG [ApoL1 EET I-II 4]” it is 47.1.
Under “GCKFWSRFCKQDSDCLAGCVCKNTDHCG (also: bicyclic or more (positions not given here)) [ApoL1 EET I-II 6]” stands 44.8; under “GCKMKKYMCKQDSDCLAGCVCHQQSKCG (also: bicyclic or more (positions not given here)) [ApoL1 EET I-II 40]”, 8.9.
As to “GCKYKCKQDSDCLAGCVCQQQGGCG (also: bicyclic or more (positions not given here)) [ApoL1 EET I-II 14]”, the S/N is listed as 40.2.
The figure for “GCLFKKAMGFCKQDSDCLAGCVCREMSHCG (also: bicyclic or more (positions not given here)) [ApoL1 EET I-II 3]” is 52.4.
The figure for “GCLFKQEMGTCKQDSDCLAGCVCEFQQKCG (also: bicyclic or more (positions not given here)) [ApoL1 EET I-II 16]” is 40.2.
The figure for “GCLFKRHFCKQDSDCLAGCVCVDQFPCG (also: bicyclic or more (positions not given here)) [ApoL1 EET I-II 21]” is 35.5.
Turning to “GCLFRRNFCKQDSDCLAGCVCEPFPECG (also: bicyclic or more (positions not given here)) [ApoL1 EET I-II 31]”, the S/N is 17.5.
“GCMFKAHWCKQDSDCLAGCVCHRSALCG (also: bicyclic or more (positions not given here)) [ApoL1 EET I-II 12]”: the S/N was found to be 41.1.
Under “GCMFKQRHCKQDSDCLAGCVCSQGQPCG (also: bicyclic or more (positions not given here)) [ApoL1 EET I-II 5]” stands 47.1; under “GCMFKRYFCKQDSDCLAGCVCPHDDQCG (also: bicyclic or more (positions not given here)) [ApoL1 EET I-II 34]”, 14.2.
The figure for “GCMFLRHFNRCKQDSDCLAGCVCPHIPDCG (also: bicyclic or more (positions not given here)) [ApoL1 EET I-II 26]” is 24.0.
Under “GCMFQMHFCKQDSDCLAGCVCGMSDCCG [ApoL1 EET I-II 27]” stands 23.7; under “GCRFKRHKCKQDSDCLAGCVCPEMSTCG (also: bicyclic or more (positions not given here)) [ApoL1 EET I-II 15]”, 40.2; under “GCRFMSHMRKRECKQDSDCLAGCVCDYQTACG (also: bicyclic or more (positions not given here)) [ApoL1 EET I-II 1]”, 70.0.
Consider “GCRFREMFYKVTCKQDSDCLAGCVCSHEANCG (also: bicyclic or more (positions not given here)) [ApoL1 EET I-II 8]”, for which the S/N stood at 43.8.
Under “GCRFRLWAMKSHCKQDSDCLAGCVCSDYSDCG (also: bicyclic or more (positions not given here)) [ApoL1 EET I-II 13]” stands 40.4.
Under “GCRFRQHWCKQDSDCLAGCVCLEQPECG (also: bicyclic or more (positions not given here)) [ApoL1 EET I-II 24]” stands 30.3.
Regarding “GCRFWQWRCKQDSDCLAGCVCGWDRECG (also: bicyclic or more (positions not given here)) [ApoL1 EET I-II 32]”, the S/N was 17.1.
Under “GCSWKCKQDSDCLAGCVCKMSQQCG (also: bicyclic or more (positions not given here)) [ApoL1 EET I-II 45]” stands 4.7; under “GCYYKCKQDSDCLAGCVCRTSNMCG (also: bicyclic or more (positions not given here)) [ApoL1 EET I-II 17]”, 39.0.
For the sequence “GPTQSPFGQCGGIGYSGPTVCASGTTCQVLRPNFSWCLPGAS (also: bicyclic or more (positions not given here)) [ApoL1 CBD 1]”, the S/N is given as 21.6.
